Experiments:
[1] = target: T1, HCV NS3-4A Protease Genotype 3a (Hepatitis C virus genotype 3a, UniProt Q81258); test: HCV protease assay, recombinant NS3-4A genotype 3a; format: biochemical; settings: mean ± SD, 3 experiments
T1 construct: recombinant HCV NS3-4A proteases
Protocol: (§1) The compounds were tested at a variety of concentrations in assay buffer containing a final DMSO concentration of 5%. Reactions were allowed to proceed for 60 min at room temperature and fluorescence measurements were recorded with a Tecan Infinity Spectrofluorimeter. The IC50 values were determined from the percent inhibition versus concentration data using a sigmoidal non-linear regression analysis based on four parameters with Tecan Magellan software.
(§2) Compound 52 was tested against genotypes 1a, 1b, 2a, 3a, and 4a of recombinant HCV NS3-4A proteases, along with other cellular proteases.

[2] = system: B-1a cell line (genotype 1a replicon selected with 10 nM, D168A); test: Extent of resistance after selection, B-1a; format: cell-based, HCV; settings: selecting conc. 10 nM
Protocol: Replicon cells (genotype 1a or 1b) were treated with various concentrations of compound 52 in the presence of G418. Treatment-emergent genotypic changes were identified by population sequencing of NS3 (both protease and helicase regions). The activity of compound 52 and other compounds was evaluated by NS5A western blot after selection or luciferase assay during and after selection.

[3] = target: T2, HCV NS3-4A Protease Genotype 1b (Hepatitis C virus genotype 1b, UniProt Q9WMX2); test: HCV protease assay, recombinant NS3-4A genotype 1b; format: biochemical; settings: mean ± SD, 3 experiments
T2 construct: recombinant HCV NS3-4A proteases
Protocol: as §1, §2

in vivo = settings: for Mean concentration, Heart / Mean concentration, Liver / Mean concentration, Plasma / Kp: single 2 mg/kg oral dose; for AUC(0-inf) / C24 h / F / AUC(0-t) / Vd / clearance / half-life / Cmax / Tmax / Kp: 2 mg/kg
Protocol: Male mice (3/time point) and monkeys (3/dose group) were given a single IV or PO dose of compound 52 in a PEG-based vehicle. The compound was quantified in liver (LLOQ=25 ng/g) and heart (LLOQ=50 ng/g) tissue (mice only) and in plasma samples (LLOQ=5 ng/mL) after liquid-liquid extraction by HPLC-MS/MS. Six healthy volunteers were given a single 200 mg dose of the compound using the selected tablet formulation and plasma concentrations were similarly determined (LLOQ=2 ng/mL). PK parameters were calculated using WinNonlin.

[4] = mouse plasma
mice = settings: mouse, in vivo
Protocol: (§3) Daily oral doses of compound 52 (up to 250 mg/kg/day) in PEG 400 were administered to both mice and monkeys for 28 consecutive days. Toxicity was evaluated based on mortality, clinical observations, body weights, food consumption, ophthalmological examination, hematology and serum chemistry, organ weights, gross and microscopic examinations. ECG, coagulation and urinalysis were also performed in the monkey study.

monkeys = settings: oral doses up to 250 mg/kg
Protocol: as §3

CD-1 mice = format: in vivo; settings: oral doses up to 2,000 mg/kg
Protocol: (§4) The potential for compound 52 to induce mutations in a bacterial system (S. typhimurium and E. coli—at concentrations up to 5,000 μg/plate), to induce chromosomal aberrations in cultures of human peripheral blood lymphocytes (at concentrations up to 84 μg/mL), and to induce clastogenic and/or aneugenic activity in CD-1 mice (at oral doses up to 2,000 mg/kg) was evaluated. The two in vitro studies were performed with and without the addition of a mammalian metabolic activation system (rat liver S9 subcellular fraction).

[5] = target: T3, HCV NS3-4A Protease Genotype 4a (Hepatitis C virus genotype 4a, UniProt O39929); test: HCV protease assay, recombinant NS3-4A genotype 4a; format: biochemical; settings: mean ± SD, 3 experiments
T3 construct: recombinant HCV NS3-4A proteases
Protocol: as §1, §2

in vitro [6] = format: cell-based; settings: human; GS4.1 cells, Cell Titer 96 AQueous One Solution
Protocol: For cytotoxicity evaluation, GS4.1 cells were treated with compounds as described above and cellular viability was monitored using the Cell Titer 96 AQueous One Solution Cell Proliferation Assay (Promega). CC50 values were determined from the % cytotoxicity versus concentration data with Tecan Magellan software as described above.

human CYP450 2B6 = target: T4, human CYP450 2B6 (Homo sapiens, UniProt P20813); test: CYP450 inhibition assay, 2B6; format: in vitro ADME
T4 construct: purchased BD Bioscience
Protocol: Compound 52 was incubated with human CYP450 cDNA-expressed isoenzymes according to the protocol (BD Bioscience). For CYP2C9, a luminogenic substrate was used with the P450-Glo™ kit. In addition, the effect of the compound on CYP2C9-mediated diclofenac metabolism was measured by LC-UV. The potential inhibitory effect of the compound on human UGT1A1 was examined using human liver microsomes and bilirubin as substrate. The metabolites (mono- and di-glucuronidated bilirubin) were measured by LC-UV.

[7] = system: human peripheral blood lymphocytes; format: cell-based; settings: up to 84 μg/mL, with and without S9
Protocol: as §4

1a replicon = test: HCV replicon luciferase assay, genotype 1a; format: cell-based
Protocol: Compound 52 was tested against genotypes 1a, 1b, and 2a in an HCV replicon assay as described in Example 2. Replicon cells (genotype 1a or 1b) were seeded onto 96-well plates, cultured for three days in the presence of the compound, and subject to a luciferase assay.

in vitro [8] = format: cell-based; settings: 48 hrs, intracellular ATP
Protocol: Freshly isolated hepatocytes were incubated with various concentrations of […] for 48 hrs. Intracellular ATP content was measured (CellTiter-Glo luminescent cell viability assay) to determine cell cytotoxicity (CC50).

COc1ccc2c(O[C@H]3CCN4C(=O)N(C)CCCC/C=C\[C@@H]5C[C@@]5(C(=O)NS(=O)(=O)C5(C)CC5)NC(=O)[C@@H]4C3)cc(-c3nc(C(F)(F)F)cs3)nc2c1C [Compound 52, 1-methyl-cyclopropanesulfonic acid{(Z)-(1S,4R,6S,18S)-18-[7-methoxy-8-methyl-2-(4-trifluoromethyl-thiazol-2-yl)-quinolin-4-yloxy]-13-methyl-2,14-dioxo-3,13,15-triaza-tricyclo[13.4.0.0*4,6*]nonadec-7-ene-4-carbonyl}amide]
IC50 [1]: 23 ± 1.9 nM
Fold-Change [2]: >3690
IC50 [3]: 1.2 ± 0.1 nM
Mean concentration, Heart (in vivo; 2 hr): 144 ng/g
Mean concentration, Liver (in vivo; 2 hr): 4410 ng/g
Mean concentration, Plasma (in vivo; 2 hr): 174 ng/mL
Mean concentration, Heart (in vivo; 6 hr): 93.0 ng/g
Mean concentration, Liver (in vivo; 6 hr): 3540 ng/g
Mean concentration, Plasma (in vivo; 6 hr): 121 ng/mL
Mean concentration, Liver (in vivo; 24 hr): 57.6 ng/g
Mean concentration, Plasma (in vivo; 24 hr): 1.45 ng/mL
Mean concentration, Heart (in vivo; 24 hr, BLQ = below 50 ng/g): BLQ^2
AUC(0-inf) (in vivo; cynomolgus monkey, po): 8920 ± 2190 ng·h/mL
C24 h (in vivo; cynomolgus monkey, po): 81 ± 47 ng/mL
F (in vivo; cynomolgus monkey, po): 107 ± 40%
AUC(0-t) (in vivo; male, CD-1, mouse, in vivo, iv): 4060 ng·h/mL
C24 h (in vivo; male, CD-1, mouse, in vivo, iv): 7.9 ± 11 ng/mL
Vd (in vivo; male, CD-1, mouse, in vivo, iv): 4.4 L/kg
clearance (in vivo; male, CD-1, mouse, in vivo, iv): 8 mL/min/kg
half-life (in vivo; male, CD-1, mouse, in vivo, iv): 6.3 h
AUC(0-t) (in vivo; male, CD-1, mouse, in vivo, po): 1410 ng·h/mL
C24 h (in vivo; male, CD-1, mouse, in vivo, po): 1.5 ± 0.3 ng/mL
Cmax (in vivo; male, CD-1, mouse, in vivo, po): 174 ng/mL
F (in vivo; male, CD-1, mouse, in vivo, po): 34.7%
Tmax (in vivo; male, CD-1, mouse, in vivo, po): 2 h
Kp (in vivo; male, CD-1, mouse, in vivo, po, Mean concentration ratio Heart/Plasma, 2 hr): 0.79
Kp (in vivo; male, CD-1, mouse, in vivo, po, Mean concentration ratio Heart/Plasma, 6 hr): 0.78
Kp (in vivo; male, CD-1, mouse, in vivo, po, Mean concentration ratio Liver/Plasma, 2 hr): 27
Kp (in vivo; male, CD-1, mouse, in vivo, po, Mean concentration ratio Liver/Plasma, 6 hr): 30
Kp (in vivo; male, CD-1, mouse, in vivo, po, Mean concentration ratio Liver/Plasma, 24 hr): 39
AUC(0-inf) (in vivo; male, cynomolgus monkey, iv): 9580 ± 1420 ng·h/mL
C24 h (in vivo; male, cynomolgus monkey, iv): 66 ± 26 ng/mL
Vd (in vivo; male, cynomolgus monkey, iv): 3.5 ± 0.5 L/kg
clearance (in vivo; male, cynomolgus monkey, iv): 3.83 mL/min/kg
half-life (in vivo; male, cynomolgus monkey, iv): 10.3 ± 1 h
Cmax (in vivo; male, cynomolgus monkey, po): 1030 ± 270 ng/mL
Tmax (in vivo; male, cynomolgus monkey, po): 1 h
half-life (in vivo; male, cynomolgus monkey, po): 7.6 ± 2 h
clearance relative to hepatic blood flow (in vivo; mouse): −9 % of hepatic blood flow
protein bound in plasma [4]: 99.2%
tolerability in 4-week GLP toxicology study (mice): well tolerated
tolerability in 4-week GLP toxicology study (monkeys): well tolerated
genotoxicity, mouse micronucleus test (CD-1 mice): no genotoxicity
IC50 [5]: 0.81 ± 0.03 nM
CC50 (in vitro [6]): 10000 to 75000 nM
IC50 (human CYP450 2B6): ≥ 10000 nM
genotoxicity, human lymphocyte chromosomal aberration test [7]: no genotoxicity
Selectivity Index (1a replicon): >22,647
EC50 (1a replicon; Hepatitis C virus, 72 h, three days, luciferase assay): 3.4 ± 1.1 nM
CC50 (in vitro [8]; fresh human hepatocytes): > 10000 nM
CC50 (in vitro [8]; fresh monkey hepatocytes): > 10000 nM
CC50 (in vitro [8]; fresh mouse hepatocytes): > 10000 nM
CC50 (in vitro [8]; fresh rat hepatocytes): > 10000 nM

From patent US8993595B2, “Macrocyclic serine protease inhibitors” (priority 2009, dated 2015)
